Earlier results on one molecule are cited in patent US8809393B2, “Injectable preparations of diclofenac and its pharmaceutically acceptable salts” (Troikaa Pharmaceuticals Ltd, priority 2005, dated 2014).

In the series the test system is erythrocytes. As to conditions: aqueous solution of 2% propylene glycol iso-osmotic with serum, in 45 min.

`CC(O)CO` (stereo not shown) [propylene glycol]: the haemolysis of erythrocytes is 100%.
